Results on 4 compounds are retold here after publication PMC3698108, “Structural and bioactive studies of terpenes and cyclopeptides from the Genus Rubia” (Chemistry Central Journal, 2013).

The subject of series [1] is human colon-cancer cells. Details: method as in PMID 18790561, PMID 18298868. Conditions: intrinsic mitochondrial pathway; cited from earlier work.
The test system of series [2] is human immunodeficiency virus (HIV-1) protease. Details: method as in PMID 8759159. Particulars: cited from earlier work.
The subject of series [3] is pancreatic tumor. Set-up: method as in PMID 20367887. Conditions: cited from earlier work.
In series [4] the test system is Protein kinase C (PKC). Conditions: cited from earlier work.
On the set-up of series [5]: method as in PMID 17978478. Conditions: KK-A^y mice; cited from earlier work.
The test system of series [6] is Candida albicans. Details: method as in PMID 21973054. Particulars: turbidimetric method; cited from earlier work.
Series [7] concerns Staphylococcus aureus. Set-up: method as in PMID 21973054. Conditions: turbidimetric method; cited from earlier work.
Series [8] concerns A549, Hela and SMMC-7721. Details: method as in PMID 21973054. Conditions: data not very satisfactory; cited from earlier work.
Series [9] has as its system RAW 264.7 murine macrophages. Particulars: cited from earlier work.
In series [10] the test system is HL-60 and HCT-116. Details: method as in PMID 22298232. Particulars: cited from earlier work.
For series [11], the system named is iNOS. Details: method as in PMID 12808242. Conditions: cited from earlier work.
In series [12] the test system is HUVEC and HMEC-1. Set-up: method as in PMID 21518338. Conditions: cited from earlier work.
Series [13] has as its system Lewis lung carcinoma cells. Details: method as in PMID 16827808. Particulars: daily intraperitoneal injection, 1.5 or 3 mg/kg/day, cited from earlier work.
The test system of series [14] is corneal angiogenesis. Set-up: method as in PMID 16827808. Particulars: cited from earlier work.
The test system of series [15] is BAEC. Details: method as in PMID 16827808. Particulars: cited from earlier work.

SMILES strings stand for the structures.

As to `CC1(C)CC[C@]2(C(=O)O)CC[C@]3(C)C(=CC[C@@H]4[C@@]5(C)C[C@@H](O)[C@H](O)C(C)(C)[C@@H]5CC[C@]43C)[C@@H]2C1` [Compound 9, Maslinic acid], the caspase-dependent apoptosis result in series [1] was “induce caspase-dependent apoptosis”. For the same compound, the “inhibition on HIV-1 protease” value in [2] is “possess inhibition”. Further, in series [3], the “effect on anti-tumor activities of TNF-α” value was “potentiate anti-tumor activities of TNF-α”; the “pancreatic tumor growth and invasion” value was “inhibit pancreatic tumor growth and invasion”. Besides, the PKC inhibition entry in [4] was “acted as a PKC inhibitor”. Further, in series [5], the “glucose-lowering and hypoinsulinemic effects” value is “significant glucose-lowering and hypoinsulinemic effects”.
In the case of `CC(=O)O[C@@H]1C[C@@H](C(C)C)[C@]2(CO)CC[C@@]3(C)[C@H]4C(=CC[C@]3(C)[C@@H]12)[C@@]1(C)CC[C@H](O)C(C)(C)[C@@H]1C[C@@H]4O` [Compound 22, Rubiarbonol G], the melting point was in the range of 170 to 173 °C. The “antifungal activity against Candida albicans” value in [6] is on record as “exhibited inhibition”. In series [7], the “antibacterial activity against Staphylococcus aureus” value is given as “exhibited inhibition”. For the same compound, the “inhibition on A549, Hela and SMMC-7721” value in series [8] is “had inhibition”.
For `COc1ccc(C[C@H]2C(=O)N[C@@H](C)C(=O)N(C)[C@H]3Cc4ccc(cc4)Oc4cc(ccc4O)C[C@@H](C(=O)N[C@H](C)C(=O)N[C@@H](C)C(=O)N2C)N(C)C3=O)cc1` [Compound 71, RA-V], the “activity against NO production in LPS” value in [9] is on record as “exhibited activity”. Moreover, the “cytotoxic activities against HL-60 and HCT-116” value in [10] was “potent cytotoxicities”. Further, the “effects on iNOS induction” value in series [11] is “potent effects”. Further, in series [12], the “antiangiogenic activity in HUVEC and HMEC-1” value is reported as “possessed the activity”.
Regarding `COc1ccc(C[C@H]2C(=O)N[C@@H](C)C(=O)N(C)[C@H]3Cc4ccc(cc4)Oc4cc(ccc4OC)C[C@@H](C(=O)N[C@H](C)C(=O)N[C@@H](C)C(=O)N2C)N(C)C3=O)cc1` [Compound 74, RA-VII], in series [10], the “cytotoxic activities against HL-60 and HCT-116” value is reported as “potent cytotoxicities”. Moreover, in series [13], the “growth of Lewis lung carcinoma cells inoculated into mice” value is “significantly and dose dependently inhibited”. In addition, the “toxic effects on animals” value in [13] (mice) is “no toxic effects”. Further, the mouse corneal angiogenesis result in series [14] is given as “effects on mouse corneal angiogenesis”. In addition, in [15], the “antiangiogenic activity on proliferation, migration, stress fiber formation of BAEC” value is “antiangiogenic activity”.

One may read the melting point as the temperature, or range, at which the solid turns liquid.
